Structures can show the parent of a compound that is named as a salt.
Legend:
[1] = molecular target: T1, glycine transporter-1 (GlyT-1) (Homo sapiens, UniProt P48067); assay: [14C]glycine uptake assay in JAR cells endogenously expressing GlyT-1 (scintillation proximity); format: cell-based; conditions: JAR cells, [14C]glycine 5 μM, 3 hour incubation; read-out: GlyT-1 IC50
T1 construct: JAR cells (ATCC#HTB-144), which endogenously express GlyT-1; host or cells: JAR human choriocarcinoma cells
T1 sequence (P48067 1-706): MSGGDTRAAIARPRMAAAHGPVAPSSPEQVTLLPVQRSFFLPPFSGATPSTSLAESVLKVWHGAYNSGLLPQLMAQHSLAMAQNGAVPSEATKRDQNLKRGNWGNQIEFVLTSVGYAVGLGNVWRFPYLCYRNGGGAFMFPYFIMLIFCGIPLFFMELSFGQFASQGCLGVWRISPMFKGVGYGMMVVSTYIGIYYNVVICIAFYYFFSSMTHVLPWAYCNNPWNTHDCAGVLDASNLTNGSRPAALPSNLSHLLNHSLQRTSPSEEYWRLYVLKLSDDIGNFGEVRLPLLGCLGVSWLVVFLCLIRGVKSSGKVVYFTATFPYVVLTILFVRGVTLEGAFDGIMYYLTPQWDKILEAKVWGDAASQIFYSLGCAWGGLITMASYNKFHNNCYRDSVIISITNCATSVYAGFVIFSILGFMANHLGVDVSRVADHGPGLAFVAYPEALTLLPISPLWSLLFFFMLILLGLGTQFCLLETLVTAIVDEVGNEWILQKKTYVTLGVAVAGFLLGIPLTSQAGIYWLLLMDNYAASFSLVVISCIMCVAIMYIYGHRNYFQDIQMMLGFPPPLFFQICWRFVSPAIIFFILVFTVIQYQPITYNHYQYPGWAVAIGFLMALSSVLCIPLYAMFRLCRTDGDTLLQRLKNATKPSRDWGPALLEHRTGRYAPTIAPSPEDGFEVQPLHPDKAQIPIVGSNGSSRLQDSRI
Procedure, shortened: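 IC50 comes from a four-parameter fit of nine-point, duplicate curves measuring inhibition of 5 μM [14C]glycine uptake, read by scintillation proximity after 3 h at 37 °C. Cells are human JAR, which express GlyT-1 endogenously, given 10 min compound pre-treatment in pH 7.4 buffer with 5 mM alanine and 0.75% DMSO.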

[2] = molecular target: T2, glycine transporter-2 (GlyT-2) (Homo sapiens, UniProt Q9Y345); assay: [14C]glycine uptake assay in HEK-GlyT-2 transfected cells; format: cell-based; conditions: HEK-GlyT-2 cells
T2 construct: expressed in transfected cells
T2 sequence (Q9Y345 1-797): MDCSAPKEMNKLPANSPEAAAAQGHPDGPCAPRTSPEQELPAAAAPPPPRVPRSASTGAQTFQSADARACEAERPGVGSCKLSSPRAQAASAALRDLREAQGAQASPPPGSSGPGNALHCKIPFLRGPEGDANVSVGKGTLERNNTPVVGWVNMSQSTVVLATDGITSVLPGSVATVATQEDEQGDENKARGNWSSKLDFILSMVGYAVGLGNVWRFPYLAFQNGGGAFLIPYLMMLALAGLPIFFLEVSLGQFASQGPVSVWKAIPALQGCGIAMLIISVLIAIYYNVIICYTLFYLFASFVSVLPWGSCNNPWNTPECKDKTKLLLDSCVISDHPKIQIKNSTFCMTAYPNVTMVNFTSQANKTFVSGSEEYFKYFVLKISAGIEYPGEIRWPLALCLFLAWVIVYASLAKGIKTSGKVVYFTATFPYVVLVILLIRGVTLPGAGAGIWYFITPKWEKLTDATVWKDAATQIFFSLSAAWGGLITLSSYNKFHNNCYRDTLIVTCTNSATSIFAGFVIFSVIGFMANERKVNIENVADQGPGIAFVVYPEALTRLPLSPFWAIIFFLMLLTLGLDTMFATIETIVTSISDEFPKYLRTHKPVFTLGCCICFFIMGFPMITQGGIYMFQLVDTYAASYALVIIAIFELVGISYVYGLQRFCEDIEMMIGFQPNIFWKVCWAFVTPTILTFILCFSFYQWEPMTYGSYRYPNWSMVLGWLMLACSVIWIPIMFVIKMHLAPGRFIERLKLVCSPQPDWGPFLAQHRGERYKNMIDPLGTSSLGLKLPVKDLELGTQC

Row | Compound | IC50 [1] [nM] | IC50 [2] [nM]
1 | O=C(NCC1(N2CCN(S(=O)(=O)CC3CC3)CC2)CCCOC1)c1c(F)cccc1F (centres unmarked) [compound 126, N-((3-(4-(Cyclopropylmethyl-sulfonyl)piperazin-1-yl)tetrahydro-2H-pyran-3-yl)methyl)-2,6-difluorobenzamide Hydrochloride] | 724 | > 75000
2 | 4-Chloro-N-((1-(4- (propylsulfonyl)piperazin- 1-yl)cycloheptyl)methyl) benzamide Hydrochloride [compound 58] | 265 | 53000
3 | Cn1cnc(S(=O)(=O)N2CCN(C3(CNC(=O)c4c(F)cccc4F)CCCC3)CC2)c1 [compound 104, 2,6-Difluoro-N-((1-(4-(1-methyl-1H-imidazol-4-ylsulfonyl)piperazin-1-yl)cyclopentyl)methyl) benzamide Hydrochloride] | 346 | > 75000
4 | CCCS(=O)(=O)N1CCN(C2(CNC(=O)c3c(N)cccc3Cl)CCN(C)CC2)CC1 [compound 116, 2-Amino-6-chloro-N-((1-methyl-4-(4-(propylsulfonyl)piperazin-1-yl)piperidin-4-yl)methyl)benzamide Hydrochloride] | 500 | > 75000
5 | CCCS(=O)(=O)N1CCN(C2(CNC(=O)c3ccc(-c4ccccc4)cc3)CCCCC2)CC1 [compound 38, N-((1-(4-(Propylsulfonyl)piperazin-1-yl)cyclohexyl)methyl) biphenyl-4-carboxamide Hydrochloride] | 172 | 1400
6 | CCCS(=O)(=O)N1CCN(C2(CNC(=O)c3ccc(Cl)cc3Cl)CCCC2)CC1 [compound 72, 2,4-Dichloro-N-((1-(4-(propylsulfonyl)piperazin-1-yl)cyclopentyl)methyl) benzamide Hydrochloride] | 171 | > 75000
7 | CS(=O)(=O)N1CCN(C2(CNC(=O)c3c(N)cccc3Cl)CCCCC2)CC1 [compound 90, 2-Amino-6-chloro-N-((1-(4-(methylsulfonyl)piperazin-1-yl)cyclohexyl)methyl) benzamide Hydrochloride] | 339 | > 75000
8 | CC(NC(=O)c1ccc(C(F)(F)F)cc1Cl)C1(N2CCN(S(=O)(=O)c3cn(C)nn3)CC2)CCC(F)(F)CC1 (centres unmarked) [compound 223, 2-Chloro-N-(1-(4,4-difluoro-1-(4-(1-methyl-1H-1,2,3-triazol-4-ylsulfonyl)piperazin-1-yl)cyclohexyl)ethyl)-4-(trifluoromethyl)benzamide Hydrochloride] | 33 | > 75000
9 | CCCS(=O)(=O)N1CCN(C2(CNC(=O)c3ccc(Cl)cc3Cl)CCOCC2)CC1 [compound 118, 2,4-Dichloro-N-((4-(4-(propylsulfonyl)piperazin-1-yl)tetrahydro-2H-pyran-4-yl)methyl)benzamide Hydrochloride] | – | > 75000
10 | CCCS(=O)(=O)N1CCN(C2(CNC(=O)c3ccccc3)CCCCC2)CC1 [compound 24, N-((1-(4-(Propylsulfonyl)piperazin-1-yl)cyclohexyl)methyl) benzamide Hydrochloride] | – | > 75000
11 | CCC(F)S(=O)(=O)N1CCN(C2(CNC(=O)c3ccc(C(F)(F)F)cc3Cl)CCC(F)(F)CC2)CC1 (stereo not drawn) [compound 244, 2-Chloro-N-((4,4-difluoro-l-(4-(1-fluoropropylsulfonyl)piperazin-1-yl)cyclohexyl)methyl)-4-(trifluoromethyl)benzamide Hydrochloride] | 51 | –
12 | CCCS(=O)(=O)N1CCN(C2(CNC(=O)c3ccc(C(C)C)cc3)CCCCC2)CC1 [compound 33, 4-Isopropyl-N-((1-(4-(propylsulfonyl)piperazin-1-yl)cyclohexyl)methyl) benzamide Hydrochloride] | 488 | –
13 | CCCS(=O)(=O)N1CCN(C2(CNC(=O)c3c(F)cc(F)cc3F)CCC(F)(F)CC2)CC1 [compound 144, N-((4,4-Difluoro-1-(4-(propylsulfonyl)piperazin-1-yl)cyclohexyl)methyl)-2,4,6-trifluorobenzamide Hydrochloride] | 46 | –
14 | CCCS(=O)(=O)N1CCN(C2(CNC(=O)c3ccc(F)cc3C)CCCCC2)CC1 [compound 10, 4-Fluoro-2-methyl-N-((1-(4-(propylsulfonyl)piperazin-1-yl)cyclohexyl)methyl) benzamide Hydrochloride] | 28 | –
15 | CCS(=O)(=O)N1CCN(C2(CNC(=O)c3c(F)ccc(Cl)c3F)CCC(F)(F)CC2)CC1 [compound 213, 3-Chloro-N-((1-(4-(ethylsulfonyl)piperazin-1-yl)-4,4-difluorocyclohexyl)methyl)-2,6-difluorobenzamide Hydrochloride] | 875 | –

Further compounds by falling IC50 [1], results first:

Row | IC50 [1] [nM] | IC50 [2] [nM] | Compound
16 | 15 | – | Cc1cc(Cl)ccc1C(=O)NCC1(N2CCN(S(=O)(=O)c3cn(C)cn3)CC2)CCC(F)(F)CC1 [compound 168, 4-Chloro-N-((4,4-difluoro-1-(4-(1-methyl-1H-imidazol-4-ylsulfonyl)piperazin-1-yl)cyclohexyl)methyl)-2-methylbenzamide Hydrochloride]
17 | 14 | > 75000 | CCCS(=O)(=O)N1CCN(C2(CNC(=O)c3c(F)cccc3OC)CCCCCC2)CC1 [compound 55, 2-Fluoro-6-methoxy-N-((1-(4-(propylsulfonyl)piperazin-1-yl)cycloheptyl)methyl) benzamide Hydrochloride]
18 | 12 | > 75000 | CCCS(=O)(=O)N1CCN(C2(CNC(=O)c3c(C)cccc3C)CCCCC2)CC1 [compound 47, 2,6-Dimethyl-N-((1-(4-(propylsulfonyl)piperazin-1-yl)cyclohexyl)methyl) benzamide Hydrochloride]
19 | 11 | > 75000 | CCCS(=O)(=O)N1CCN(C2(CNC(=O)c3c(C)cc(Cl)cc3C)CCC(F)(F)CC2)CC1 [compound 266, 4-Chloro-N-((4,4-difluoro-1-(4-(propylsulfonyl)piperazin-1-yl)cyclohexyl)methyl)-2,6-dimethylbenzamide Hydrochloride]
20 | 6 | – | Cc1cccc(F)c1C(=O)NCC1(N2CCN(S(=O)(=O)c3cn(C)cn3)CC2)CCC(F)(F)CC1 [compound 182, N-((4,4-Difluoro-1-(4-(1-methyl-1H-imidazol-4-ylsulfonyl)piperazin-1-yl)cyclohexyl)methyl)-2-fluoro-6-methylbenzamide Hydrochloride]
21 | 5 | – | Cn1cnc(S(=O)(=O)N2CCN(C3(CNC(=O)c4c(Cl)cccc4Cl)CCC(F)(F)CC3)CC2)c1 [compound 174, 2,6-Dichloro-N-((4,4-difluoro-1-(4-(1-methyl-1H-imidazol-4-ylsulfonyl)piperazin-1-yl)cyclohexyl)methyl) benzamide Hydrochloride]
22 | 3 | > 75000 | COc1cc(F)cc(SC)c1C(=O)NCC1(N2CCN(S(=O)(=O)c3cn(C)nn3)CC2)CCCC1 [compound 113, 4-Fluoro-2-methoxy-N-((1-(4-(1-methyl-1H-1,2,3-triazol-4-ylsulfonyl)piperazin-1-yl)cyclopentyl)methyl)-6-(methylthio)benzamide Hydrochloride]
23 | 2 | – | Cn1cnc(S(=O)(=O)N2CCN(C3(CNC(=O)c4ccc(C(F)(F)F)cc4Cl)CCC(F)(F)CC3)CC2)c1 [compound 171, N-((4,4-Difluoro-1-(4-(1-methyl-1H-imidazol-4-ylsulfonyl)piperazin-1-yl)cyclohexyl)methyl)-2-chloro-4-(trifluoromethyl)benzamide Hydrochloride]

Reference: patent US9045445B2, “Glycine transporter-1 inhibitors, methods of making them, and uses thereof” (Albany Molecular Research, Inc., priority 2010, dated 2015)
